Starred links: 1 amine or outer side, 2 acyl side, 3 side chain; linkers in the order of their positions; H or OH if unused. Positions of bridges follow the written chain, without caps; N, C: chain ends. Non-standard residues stand in square brackets, D forms with d. Residues, ends and D or L forms follow the SMILES beside them. *: point of attachment. NH(CH2)3NH(O2Oc(DOTA)) = O=C(O)CN1CCN(CC(=O)O)CCN(CC(=O)NCCOCCOCC(=O)NCCCN*)CCN(CC(=O)O)CC1; DOTA = O=C(O)CN1CCN(CC(=O)O)CCN(CC(=O)*)CCN(CC(=O)O)CC1; Trp(7-aza) = N[C@@H](Cc1c[nH]c2ncccc12)C(=O)O; Phe(4-NH2) = Nc1ccc(C[C@H](N)C(=O)O)cc1; mXylylene = c1cc(C[*:1])cc(C[*:2])c1; Bta = N[C@@H](Cc1csc2ccccc12)C(=O)O; Hydrocinnamoyl = O=C(CCc1ccccc1)*; X2 = O=C(CN1CCC(N[*:1])CC1)[*:2]; X71 = O=C1NC(=O)C(CC(=O)*)N1; 3Amb = NCc1cccc(C(=O)O)c1; Thp = NC1(C(=O)O)CCOCC1; AEEA = NCCOCCOCC(=O)O; Aib = CC(C)(N)C(=O)O; Bn = c1ccc(C*)cc1; Sar = CNCC(=O)O

Results on 16 compounds are retold here after US20250339569A1, “CARBONIC ANHYDRASE IX LIGANDS” (priority 2021, published 2025).

The first assay deals with T1, CAIX-expressing human HT-29 colorectal cancer cells (Homo sapiens, UniProt Q16790).
T1 construct: CAIX-expressing human HT-29 colorectal cancer cells; host or cells: HT-29 human colorectal cancer cells
The experiment in a line: FACS binding assay (IC50 determination, competition with tracer 3BP-2776 or 3BP-4149). To be noted: FACS binding assay, HT-29 cells, competition with tracer 3BP-2776 (10 nM, biotin-labeled), 4° C., 1 hour; read-out: pIC50 category (activity) (converted). Summed up: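 HT-29 cells in FACS buffer (PBS, 1% FCS) at 500.000 cells/ml were exposed to compounds competing with a labelled tracer, with biotinylated compounds detected by 1 μg/mL APC-streptavidin for 30 min on ice. APC/Cy5 median fluorescence was read by flow cytometry and IC50 derived by 4PL fit.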
As to `CC(C)C[C@@H]1NC(=O)[C@H](CSCc2ccccc2)NC(=O)[C@H](CC(=O)O)NC(=O)[C@H]2CCCN2C(=O)[C@H](CCC(=O)O)NC(=O)[C@@H](NC(=O)[C@H](Cc2ccc(O)cc2)NC(=O)[C@@H](NC(=O)CN2CCC(NC(=O)CN3CCN(CC(=O)O)CCN(CC(=O)O)CCN(CC(=O)O)CC3)CC2)C(C)C)CSCc2cccc(c2)CSC[C@@H](C(N)=O)NC(=O)[C@H](CO)NC(=O)[C@H](Cc2c[nH]c3ccccc23)NC(=O)[C@H]([C@@H](C)O)NC1=O` [3BP-4130] ({DOTA}-[X2]VYCE[dP]DC(Bn)LTWSC-NH2; linker 4-13 via mXylylene), the IC50 was < 0.01 µM.

Turning to `CC(C)C[C@@H]1NC(=O)[C@H](Cc2c[nH]c3ccccc23)NC(=O)[C@H](CC(=O)O)NC(=O)[C@H]2CCCN2C(=O)[C@H](CCC(=O)O)NC(=O)[C@@H](NC(=O)[C@H](Cc2ccc(O)cc2)NC(=O)[C@@H](NC(=O)CN2CCC(NC(=O)CN3CCN(CC(=O)O)CCN(CC(=O)O)CCN(CC(=O)O)CC3)CC2)C(C)C)CSCc2cccc(c2)CSC[C@@H](C(N)=O)NC(=O)[C@H](CO)NC(=O)[C@H](Cc2c[nH]c3ncccc23)NC(=O)[C@H]([C@@H](C)O)NC1=O` [3BP-4159] ({DOTA}-[X2]VYCE[dP]DWLT[Trp(7-aza)]SC-NH2; linker 4-13 via mXylylene), the IC50 is < 0.01 µM.

Turning to `CC(=O)N[C@H](C(=O)N[C@@H](Cc1ccc(O)cc1)C(=O)N[C@H]1CSCc2cccc(c2)CSC[C@@H](C(N)=O)NC(=O)[C@H](CO)NC(=O)[C@H](Cc2c[nH]c3ccccc23)NC(=O)[C@@H]2CCC(=O)NCCCC[C@H](NC(=O)[C@H]3CCCN3C(=O)[C@H](CCC(=O)O)NC1=O)C(=O)N[C@@H](Cc1c[nH]c3ccccc13)C(=O)NC1(CCOCC1)C(=O)N2)C(C)C` [3BP-3962] (Ac-VYCE[dP]KW[Thp]EWSC-NH2; linker 3-12 via mXylylene; lactam 6-9), the IC50 is 0.1 to 0.794 µM.

The same assay, now with this note: FACS binding assay, HT-29 cells, competition with tracer 3BP-4149 (3 nM, Cy5-labeled), 4° C., 1 hour; read-out: pIC50 category (activity) (converted).
Regarding `CC(C)C[C@@H]1NC(=O)[C@H](Cc2ccc(NC(=O)CC3NC(=O)NC3=O)cc2)NC(=O)[C@H](CC(=O)O)NC(=O)[C@H]2CCCN2C(=O)[C@H](CCC(=O)O)NC(=O)[C@@H](NC(=O)[C@H](Cc2ccc(O)cc2)NC(=O)[C@@H](NC(=O)CN2CCC(NC(=O)CN3CCN(CC(=O)O)CCN(CC(=O)O)CCN(CC(=O)O)CC3)CC2)C(C)C)CSCc2cccc(c2)CSC[C@@H](C(N)=O)NC(=O)[C@H](CO)NC(=O)[C@H](Cc2c[nH]c3ccccc23)NC(=O)[C@H]([C@@H](C)O)NC1=O` (stereo partly shown) [3BP-4458] ({DOTA}-[X2]VYCE[dP]D[Phe(4-NH2)](X71)LTWSC-NH2; linker 4-13 via mXylylene), the IC50 was 0.01 to 0.0794 µM.

Staying with this assay, now noted: FACS competition on HT-29 cells, Tracer ID 3BP-2776 (10 nM, biotin-labeled), 4° C., 1 hour; read-out: pIC50 category (activity) (converted).
Turning to `CC(=O)N[C@H](C(=O)N[C@@H](Cc1ccc(O)cc1)C(=O)N[C@H]1CSCc2cccc(c2)CSC[C@@H](C(N)=O)NC(=O)[C@H](CCC(N)=O)NC(=O)[C@H](Cc2c[nH]c3ccccc23)NC(=O)[C@H](C)NC(=O)[C@H](CC(C)C)NC(=O)[C@H](Cc2c[nH]c3ccccc23)NC(=O)[C@H](CC(=O)O)NC(=O)CNC(=O)[C@H](CCC(=O)O)NC1=O)C(C)C` [3BP-3056] (Ac-VYCEGDWLAWQC-NH2; linker 3-12 via mXylylene), the IC50 was 0.01 to 0.0794 µM.

In the case of `CC(=O)N[C@H](C(=O)N[C@@H](Cc1ccc(O)cc1)C(=O)N[C@H]1CSCc2cccc(c2)CSC[C@@H](C(N)=O)NC(=O)[C@H](CCC(N)=O)NC(=O)[C@H](Cc2csc3ccccc23)NC(=O)[C@H]([C@@H](C)O)NC(=O)[C@H](CC(C)C)NC(=O)[C@H](Cc2c[nH]c3ccccc23)NC(=O)[C@H](CC(=O)O)NC(=O)CN(C)C(=O)[C@H](CCC(=O)O)NC1=O)C(C)C` [3BP-3315] (Ac-VYCE[Sar]DWLT[Bta]QC-NH2; linker 3-12 via mXylylene), the IC50 was 0.1 to 0.794 µM.

`CC(C)C[C@@H]1NC(=O)[C@H](Cc2c[nH]c3ccccc23)NC(=O)[C@H](CO)NC(=O)[C@H]2CCCN2C(=O)[C@H](CCC(=O)O)NC(=O)[C@@H](NC(=O)[C@H](Cc2ccc(O)cc2)NC(=O)[C@@H](NC(=O)CN2CCC(NC(=O)CN3CCN(CC(=O)O)CCN(CC(=O)O)CCN(CC(=O)O)CC3)CC2)C(C)C)CSCc2cccc(c2)CSC[C@@H](C(N)=O)NC(=O)[C@H](CO)NC(=O)[C@H](Cc2c[nH]c3ccccc23)NC(=O)[C@H]([C@@H](C)O)NC1=O` [3BP-3595] ({DOTA}-[X2]VYCE[dP]SWLTWSC-NH2; linker 4-13 via mXylylene): the IC50 was < 0.01 µM.

Consider `CC(=O)N[C@H](C(=O)N[C@@H](Cc1ccc(O)cc1)C(=O)N[C@H]1CSCc2cccc(c2)CSC[C@@H](C(N)=O)NC(=O)CNC(=O)[C@H](Cc2c[nH]c3ccccc23)NC(=O)[C@H]([C@@H](C)O)NC(=O)[C@H](CC(C)C)NC(=O)[C@H](Cc2c[nH]c3ccccc23)NC(=O)[C@H](CC(=O)O)NC(=O)CN(C)C(=O)[C@H](CCC(=O)O)NC1=O)C(C)C` [3BP-3304] (Ac-VYCE[Sar]DWLTWGC-NH2; linker 3-12 via mXylylene), for which the IC50 was < 0.01 µM.

For `CC(=O)N[C@H](C(=O)N[C@@H](Cc1ccc(O)cc1)C(=O)N[C@H]1CSCc2cccc(c2)CSC[C@@H](C(=O)NCCOCCOCC(=O)N[C@@H](CCCCNC(=O)CN2CCN(CC(=O)O)CCN(CC(=O)O)CCN(CC(=O)O)CC2)C(N)=O)NC(=O)[C@H](C)NC(=O)[C@H](Cc2c[nH]c3ccccc23)NC(=O)[C@H]([C@@H](C)O)NC(=O)[C@H](CC(C)C)NC(=O)[C@H](Cc2c[nH]c3ccccc23)NC(=O)[C@H](CC(=O)O)NC(=O)[C@H]2CCCN2C(=O)[C@H](CCC(=O)O)NC1=O)C(C)C` [3BP-3474, Ac-Val-Tyr-[Cys(3MeBn)-Glu-pro-Asp-Trp-Leu-Thr-Trp-Ala-Cys]-O2Oc-Lys(DOTA)-NH2] (Ac-VYCE[dP]DWLTWAC[AEEA]K(DOTA)-NH2; linker 3-12 via mXylylene), the IC50 was < 0.01 µM.

Regarding `CC(C)C[C@@H]1NC(=O)[C@H](Cc2c[nH]c3ccccc23)NC(=O)[C@H](CC(=O)O)NC(=O)[C@H]2CCCN2C(=O)[C@H](CCC(=O)O)NC(=O)[C@@H](NC(=O)[C@H](Cc2ccc(O)cc2)NC(=O)[C@@H](NC(=O)CN2CCC(NC(=O)CN3CCN(CC(=O)O)CCN(CC(=O)O)CCN(CC(=O)O)CC3)CC2)C(C)C)CSCc2cccc(c2)CSC[C@@H](C(N)=O)NC(=O)[C@H](CO)NC(=O)[C@H](Cc2c[nH]c3ccccc23)NC(=O)[C@H](Cc2c[nH]cn2)NC1=O` [3BP-3597] ({DOTA}-[X2]VYCE[dP]DWLHWSC-NH2; linker 4-13 via mXylylene), the IC50 is < 0.01 µM.

As to `CC(=O)N[C@H](C(=O)N[C@@H](Cc1ccc(O)cc1)C(=O)N[C@H]1CSCc2cccc(c2)CSC[C@@H](C(N)=O)NC(=O)[C@H](CCC(N)=O)NC(=O)[C@H](Cc2c[nH]c3ccccc23)NC(=O)[C@H]([C@@H](C)O)NC(=O)[C@H](CC(C)C)NC(=O)[C@H](Cc2c[nH]c3ccccc23)NC(=O)[C@H](CC(=O)O)NC(=O)CN(C)C(=O)[C@H](CCC(=O)O)NC1=O)C(C)C` [3BP-3060] (Ac-VYCE[Sar]DWLTWQC-NH2; linker 3-12 via mXylylene), the IC50 is < 0.01 µM.

In the case of `CC(C)C[C@@H]1NC(=O)[C@H](Cc2c[nH]c3ccccc23)NC(=O)[C@H](CC(=O)O)NC(=O)[C@H]2CCCN2C(=O)[C@H](CCC(=O)O)NC(=O)[C@@H](NC(=O)[C@H](Cc2ccc(O)cc2)NC(=O)[C@@H](NC(=O)c2cccc(CNC(=O)CN3CCN(CC(=O)O)CCN(CC(=O)O)CCN(CC(=O)O)CC3)c2)C(C)C)CSCc2cccc(c2)CSC[C@@H](C(N)=O)NC(=O)[C@H](C)NC(=O)[C@H](Cc2c[nH]c3ccccc23)NC(=O)[C@H]([C@@H](C)O)NC1=O` [3BP-3429] ({DOTA-3Amb}-VYCE[dP]DWLTWAC-NH2; linker 3-12 via mXylylene), the IC50 is < 0.01 µM.

Consider `CC(=O)N[C@H](C(=O)N[C@@H](Cc1ccc(O)cc1)C(=O)N[C@H]1CSCc2cccc(c2)CSC[C@@H](C(N)=O)NC(=O)[C@H](CCC(N)=O)NC(=O)[C@H](Cc2c[nH]c3ccccc23)NC(=O)[C@H]([C@@H](C)O)NC(=O)[C@H](CC(C)C)NC(=O)[C@H](Cc2c[nH]c3ccccc23)NC(=O)C(C)(C)NC(=O)CNC(=O)[C@H](CCC(=O)O)NC1=O)C(C)C` [3BP-3061] (Ac-VYCEG[Aib]WLTWQC-NH2; linker 3-12 via mXylylene), for which the IC50 was 0.1 to 0.794 µM.

As to `CC(=O)N[C@@H](CO)C(=O)N[C@@H](CCCNC(=N)N)C(=O)N[C@H]1CSCc2cccc(c2)CSC[C@@H](C(N)=O)NC(=O)[C@H](CCC(=O)NCCCNC(=O)COCCOCCNC(=O)CN2CCN(CC(=O)O)CCN(CC(=O)O)CCN(CC(=O)O)CC2)NC(=O)[C@H](Cc2c[nH]c3ccccc23)NC(=O)[C@H]([C@@H](C)O)NC(=O)[C@H](CC(C)C)NC(=O)[C@H](Cc2c[nH]c3ccccc23)NC(=O)[C@H](CC(=O)O)NC(=O)[C@H]2CCCN2C(=O)[C@H](CCC(=O)O)NC1=O` [3BP-3735] (Ac-SRCE[dP]DWLTWE(NH(CH2)3NH(O2Oc(DOTA)))C-NH2; linker 3-12 via mXylylene), the IC50 was < 0.01 µM.

As to `CC(C)C[C@@H]1NC(=O)[C@H](Cc2c[nH]c3ccccc23)NC(=O)[C@H](CC(=O)O)NC(=O)CNC(=O)[C@H](CCC(=O)O)NC(=O)[C@@H](NC(=O)[C@H](Cc2ccc(O)cc2)NC(=O)[C@@H](NC(=O)CCc2ccccc2)C(C)C)CSCc2cccc(c2)CSC[C@@H](C(N)=O)NC(=O)[C@H](CCC(N)=O)NC(=O)[C@H](Cc2c[nH]c3ccccc23)NC(=O)[C@H]([C@@H](C)O)NC1=O` [3BP-3110] (Hydrocinnamoyl-VYCEGDWLTWQC-NH2; linker 3-12 via mXylylene), the IC50 is < 0.01 µM.

`CC(=O)N[C@H](C(=O)N[C@@H](Cc1ccc(O)cc1)C(=O)N[C@H]1CSCc2cccc(c2)CSC[C@@H](C(N)=O)NC(=O)[C@H](CO)NC(=O)[C@H](Cc2c[nH]c3ccccc23)NC(=O)[C@@H]2CCCCNC(=O)CC[C@H](NC1=O)C(=O)N1CCC[C@@H]1C(=O)N[C@@H](CC(=O)O)C(=O)N[C@@H](Cc1c[nH]c3ccccc13)C(=O)N[C@@H](CC(C)C)C(=O)N2)C(C)C` [3BP-3899] (Ac-VYCE[dP]DWLKWSC-NH2; linker 3-12 via mXylylene; lactam 4-9): the IC50 was 0.1 to 0.794 µM.
